Test results published in US7709498B2, “Quinoline derivatives as antibacterial agents” (Janssen Pharmaceutica N.V., priority 2005, dated 2010).
≈ marks a conversion by molar mass, not a printed value.

Columns and labels:
Assay type in all cases: cell-based
[1] = test system: Enterococcus faecalis (ATCC29212); assay: Microtitre plate assay, IC90 determination, EFA 29212; conditions: 90% inhibitory concentration for bacterial growth, 37° C., resazurin fluorescence; for IC90: Enterococcus faecalis, ATCC29212, 24 h, read-out: IC90 (μg/ml) EFA 29212; for IC90 (μg/ml) EFA 29212: 24 hours
Procedure: (§1) The bacteria used in this study were grown overnight in flasks containing 100 ml Mueller-Hinton Broth (Becton Dickinson—cat. no. 275730) in sterile de-ionized water, with shaking, at 37° C. Stocks (0.5 ml/tube) were stored at −70° C. until use. Bacteria titrations were performed in microtiter plates to detect the TCID50, in which the TCID50 represents the dilution that gives rise to bacterial growth in 50% of inoculated cultures.
(§2) In general, an inoculum level of approximately 100 TCID50 was used for susceptibility testing.
(§3) Flat-bottom, sterile 96-well plastic microtiter plates were filled with 180 μl of sterile deionized water, supplemented with 0.25% BSA. Subsequently, stock solutions (7.8× final test concentration) of compounds were added in 45 μl volumes in column 2. Serial five-fold dilutions (45 μl in 180 μl) were made directly in the microtiter plates from column 2 to reach column 11. Untreated control samples with (column 1) and without (column 12) inoculum were included in each microtiter plate. Depending on the bacteria type, approximately 10 to 60 CFU per well of bacteria inoculum (100 TCID50), in a volume of 100 μl in 2.8× Mueller-Hinton broth medium, was added to the rows A to H, except column 12. The same volume of broth medium without inoculum was added to column 12 in row A to H. The cultures were incubated at 37° C. for 24 hours under a normal atmosphere (incubator with open air valve and continuous ventilation). At the end of incubation, one day after inoculation, the bacterial growth was quantitated fluorometrically. Therefore resazurin (0.6 mg/ml) was added in a volume of 20 μl to all wells 3 hours after inoculation, and the plates were re-incubated overnight. A change in colour from blue to pink indicated the growth of bacteria. The fluorescence was read in a computer-controlled fluorometer (Cytofluor Biosearch) at an excitation wavelength of 530 nm and an emission wavelength of 590 nm. The % growth inhibition achieved by the compounds was calculated according to standard methods. The IC90 (expressed in μg/ml) was defined as the 90% inhibitory concentration for bacterial growth.
(§4) BSU 3639 means Bacillus subtilis (ATCC43639); ECO 25922 means Escherichia coli (ATCC25922); EFA 14506 means Enterococcus faecalis (ATCC14506); EFA 29212 means Enterococcus faecalis (ATCC29212); LMO 49594 means Listeria monocytogenes (ATCC49594); PAE 27853 means Pseudomonas aeruginosa (ATCC27853); SMU 33402 means Streptococcus mutans (ATCC33402); SPN 6305 means Streptococcus pneumoniae (ATCC6305); SPY 8668 means Streptococcus pyogens (ATCC8668); STA 43300 means Staphylococcus aureus (ATCC43300); STA 25923 means Staphylococcus aureus (ATCC25923); STA 29213 means Staphylococcus aureus (ATCC29213); STA RMETH means methicilline resistant Staphylococcus aureus (MRSA) (a clinical isolate from the University of Antwerp). ATCC means American type tissue culture.

[2] = test system: Streptococcus mutans (ATCC33402); assay: Microtitre plate assay, IC90 determination, SMU 33402; conditions: 90% inhibitory concentration for bacterial growth, 37° C., resazurin fluorescence; for IC90: Streptococcus mutans, ATCC33402, 24 h, read-out: IC90 (μg/ml) SMU 33402
Procedure: as §1, §2, §3, §4

[3] = test system: Staphylococcus aureus (ATCC43300); assay: Microtitre plate assay, IC90 determination, STA 43300; conditions: 90% inhibitory concentration for bacterial growth, 37° C., resazurin fluorescence; for IC90: Staphylococcus aureus, ATCC43300, 24 h, read-out: IC90 (μg/ml) STA 43300
Procedure: as §1, §2, §3, §4

[4] = test system: Streptococcus pyogens (ATCC8668); assay: Microtitre plate assay, IC90 determination, SPY 8668; conditions: 90% inhibitory concentration for bacterial growth, 37° C., resazurin fluorescence; for IC90: Streptococcus, ATCC8668, 24 h, read-out: IC90 (μg/ml) SPY 8668; for IC90 (μg/ml) SPY 8668: 24 hours
Procedure: as §1, §2, §3, §4

[5] = test system: Listeria monocytogenes (ATCC49594); assay: Microtitre plate assay, IC90 determination, LMO 49594; conditions: 90% inhibitory concentration for bacterial growth, 37° C., resazurin fluorescence; for IC90: Listeria monocytogenes, ATCC49594, 24 h, read-out: IC90 (μg/ml) LMO 49594; for IC90 (μg/ml) LMO 49594: 24 hours
Procedure: as §1, §2, §3, §4

[6] = test system: Streptococcus pneumoniae (ATCC6305); assay: Microtitre plate assay, IC90 determination, SPN 6305; conditions: 90% inhibitory concentration for bacterial growth, 37° C., resazurin fluorescence; for IC90 (μg/ml) SPN 6305: 24 hours; for IC90: Streptococcus pneumoniae, ATCC6305, 24 h, read-out: IC90 (μg/ml) SPN 6305
Procedure: as §1, §2, §3, §4

[7] = test system: Bacillus subtilis (ATCC43639); assay: Microtitre plate assay, IC90 determination, BSU 43639; conditions: 90% inhibitory concentration for bacterial growth, 37° C., resazurin fluorescence; for IC90: Bacillus subtilis, ATCC43639, 24 h, read-out: IC90 (μg/ml) BSU 43639; for IC90 (μg/ml) BSU 43639: 24 hours
Procedure: as §1, §2, §3, §4

[8] = test system: Pseudomonas aeruginosa (ATCC27853); assay: Microtitre plate assay, IC90 determination, PAE 27853; conditions: 90% inhibitory concentration for bacterial growth, 37° C., resazurin fluorescence; for IC90: Pseudomonas aeruginosa, ATCC27853, 24 h, read-out: IC90 (μg/ml) PAE 27853
Procedure: as §1, §2, §3, §4

[9] = test system: Staphylococcus aureus (ATCC25923); assay: Microtitre plate assay, IC90 determination, STA 25923; conditions: 90% inhibitory concentration for bacterial growth, 37° C., resazurin fluorescence; for IC90: Staphylococcus aureus, ATCC25923, 24 h, read-out: IC90 (μg/ml) STA 25923; for IC90 (μg/ml) STA 25923: 24 hours
Procedure: as §1, §2, §3, §4

| Structure (SMILES) | IC90 [1] | IC90 [5] | IC90 (μg/ml) SPN 6305 [6] | IC90 [7] | IC90 [8] | IC90 (μg/ml) LMO 49594 [5] | other results |
| --- | --- | --- | --- | --- | --- | --- | --- |
| COc1nc2ccc(Br)cc2cc1C(c1ccccc1)C(O)(CCN(C)C)c1ccsc1 (stereo not drawn) [Compound 25] | 11.5 µg/mL (≈ 22.5 µM) | 11.5 µg/mL (≈ 22.5 µM) | 12.8 µg/mL (≈ 25 µM) | – | – | – | IC90 [2]: 11.5 µg/mL (≈ 22.5 µM); IC90 [3]: 12.8 µg/mL (≈ 25 µM); IC90 [4]: 4.1 µg/mL (≈ 8.02 µM) |
| COc1nc2ccc(-c3ccc(CO)o3)cc2cc1C(c1ccccc1)C(O)(CCN(C)C)c1cccc2ccccc12 (stereo not drawn) [Compound 212] | – | – | – | 11.4 µg/mL (≈ 19.9 µM) | – | – | – |
| COc1nc2ccc(Br)cc2cc1C(c1ccc(Cl)cc1)C(O)(CCN(C)C)c1ccccc1 (stereo not drawn) [Compound 36] | 4.8 µg/mL (≈ 8.89 µM) | 5.4 µg/mL (≈ 10 µM) | 2.7 µg/mL (≈ 5 µM) | 24.1 µg/mL (≈ 44.6 µM) | 4.8 µg/mL (≈ 8.89 µM) | – | IC90 [2]: 3.8 µg/mL (≈ 7.04 µM); IC90 [3]: 4.8 µg/mL (≈ 8.89 µM); IC90 [4]: 0.4 µg/mL (≈ 0.741 µM) |
| COc1nc2ccc(Br)cc2cc1C(c1ccccc1)C(O)(CCN(C)C)c1ccc2c(c1)OCCO2 (stereo not drawn) [Compound 77] | – | – | – | – | 11.2 µg/mL (≈ 19.9 µM) | – | IC90 [6]: 14.2 µg/mL (≈ 25.2 µM) |
| COc1nc2ccc(Br)cc2cc1C(c1ccccc1)C(O)(CCN(C)C)c1cccc(F)c1 (stereo not drawn) [Compound 109] | 11.7 µg/mL (≈ 22.4 µM) | – | 13.1 µg/mL (≈ 25 µM) | – | 11.7 µg/mL (≈ 22.4 µM) | 9.3 µg/mL (≈ 17.8 µM) | IC90 [9]: 10.4 µg/mL (≈ 19.9 µM); IC90 [3]: 13.1 µg/mL (≈ 25 µM); IC90 (μg/ml) SPY 8668 [4]: 13.1 µg/mL (≈ 25 µM) |
| COc1nc2ccc(Br)cc2cc1C(c1ccccc1)C(O)(CCN1CCN(C)CC1)c1ccccc1 (racemic) [Compound 51] | – | – | 5.6 µg/mL (≈ 9.99 µM) | – | – | 25.0 µg/mL (≈ 44.6 µM) | IC90 (μg/ml) EFA 29212 [1]: 25.0 µg/mL (≈ 44.6 µM); IC90 (μg/ml) BSU 43639 [7]: 28.1 µg/mL (≈ 50.1 µM) |
| CCN(CC)CCC(O)(c1ccccc1)C(c1ccccc1)c1cc2cc(Br)ccc2nc1OC (stereo not drawn) [Compound 18] | 13.3 µg/mL (≈ 24.9 µM) | 13.3 µg/mL (≈ 24.9 µM) | 0.7 µg/mL (≈ 1.31 µM) | – | – | – | – |
| CCOc1nc2ccc(Br)cc2cc1C(c1ccccc1)C(O)(CCN(C)C)c1ccccc1 (stereo not drawn) [Compound 6] | 11.6 µg/mL (≈ 22.3 µM) | 11.6 µg/mL (≈ 22.3 µM) | – | – | 11.6 µg/mL (≈ 22.3 µM) | – | IC90 (μg/ml) SMU 33402 ([2]; 24 hours): 4.6 µg/mL (≈ 8.85 µM); IC90 [4]: 4.6 µg/mL (≈ 8.85 µM); IC90 [6]: 13 µg/mL (≈ 25 µM) |
| COc1nc2ccc(-c3ccccc3)cc2cc1C(c1ccccc1)C(O)(CCN(C)C)c1ccccc1 (stereo not drawn) [Compound 27] | – | – | 12.6 µg/mL (≈ 25.1 µM) | – | – | 8.9 µg/mL (≈ 17.7 µM) | IC90 (μg/ml) BSU 43639 [7]: 10.0 µg/mL (≈ 19.9 µM) |
| COc1nc2ccc(-c3cccnc3)cc2cc1C(c1ccccc1)C(O)(CCN(C)C)c1cc(F)cc(F)c1 (stereo not drawn) [Compound G] | 10.8 µg/mL (≈ 20 µM) | 10.8 µg/mL (≈ 20 µM) | – | 13.6 µg/mL (≈ 25.2 µM) | – | – | – |
| COc1nc2ccc(Br)cc2cc1C(c1ccccc1)C(O)(CCN)c1ccccc1 (stereo not drawn) [Compound 44] | – | – | – | 7.6 µg/mL (≈ 15.9 µM) | – | – | IC90 [9]: 7.6 µg/mL (≈ 15.9 µM) |
| CCNCCC(O)(c1ccc(F)cc1F)C(c1ccccc1)c1cc2cc(Br)ccc2nc1OC (racemic) [B] | – | – | – | – | – | – | IC90 (μg/ml) STA 25923 [9]: 8.6 µg/mL (≈ 15.9 µM) |
| COc1nc2ccc(Br)cc2cc1C(c1ccccc1)C(O)(CCN(C)C)c1cccc(F)c1 (stereo not drawn) [Compound 39] | – | – | 5.9 µg/mL (≈ 11.3 µM) | – | – | 4.7 µg/mL (≈ 8.98 µM) | IC90 (μg/ml) PAE 27853 ([8]; 24 hours): 10.4 µg/mL (≈ 19.9 µM); IC90 (μg/ml) STA 25923 [9]: 10.4 µg/mL (≈ 19.9 µM); IC90 (μg/ml) EFA 29212 [1]: 10.4 µg/mL (≈ 19.9 µM); IC90 [2]: 11.7 µg/mL (≈ 22.4 µM); IC90 (μg/ml) STA 43300 ([3]; 24 hours): 13.1 µg/mL (≈ 25 µM); IC90 (μg/ml) SPY 8668 [4]: 1.9 µg/mL (≈ 3.63 µM) |
